Source: US20160355782A1, “METHOD FOR ENHANCING DIFFERENTIATION OF DOPAMINERGIC NEURONS” (Buddhist Tzu Chi Medical Foundation, priority 2015, published 2016)

Test system: midbrain explants
Assay: Midbrain explant cultures, TH+ cell numbers
Type: cell-based, rat
Conditions: without exogenous UCN
Protocol: Midbrain explants were dissected from E13.5 embryos by the method known by a person skilled in the art, for example as the protocol described by Baizabal and Covarrubias (2009) and performed with some modifications.
The dorsal midline of the explants was cut and the tissue was placed on porous (0.4 μm) transparent membrane inserts (25-mm in diameter, Nunc, Roskilde, Denmark) with the ventricular surface facing up. Inserts were then placed into six-well culture plates. Each well contained 1.5 mL of MEM medium supplemented with 10% FBS, 100 U/mL penicillin, and 100 μg/mL streptomycin. Explants were incubated at 37° C. with 5% CO2 for 4 hours, after which the explants were incubated in a serum-free DMEM/F12/N2 medium with or without UCN for 3 days. Midbrain explants were then fixed with 4% paraformaldehyde and immuno-histochemical analysis was performed.

[1] = CP-376395 in combination with astressin 2B

CCC(CC)Nc1cc(C)nc(Oc2c(C)cc(C)cc2C)c1C [CP-376395]
TH+ cell numbers in the VM of midbrain explants [1]: reduce

astressin
TH+ cell numbers in the VM of midbrain explants (astressin): reduce

astressin 2B
TH+ cell numbers in the VM of midbrain explants [1]: reduce
